Consider 23 compounds from patent publication US11708348B2, “Protease inhibitors for treatment of coronavirus infections” (The Scripps Research Institute, priority 2021, dated 2023).

A word on the EC50: it is the midpoint of the concentration-response curve.

Molecules are shown by their SMILES.

For the first experiment, the system named is SARS-CoV-2 strain USA-WA1/2020. The experiment is described as follows: microbe, parasite or virus in culture. The experiment is classed as cell-based. The settings on record: Severe acute respiratory syndrome coronavirus 2, HeLa-ACE2, 24 h, HeLa-ACE2 cells, SARS-CoV-2 infection, 24 h; class symbols; read-out: EC50, uM (Hela).
With `CC(C)C[C@H](NC(=O)c1ccccc1)C(=O)N[C@@H](C[C@@H]1CCNC1=O)C(=O)COc1c(F)c(F)cc(F)c1F` [Compound 9, N-((S)-4-methyl-1-oxo-1-(((S)-3-oxo-1-((S)-2-oxopyrrolidin-3-yl)-4-(2,3,5,6-tetrafluorophenoxy)butan-2-yl)amino)pentan-2-yl)benzamide], the 50% effective concentration (EC50) is 0.05 to 0.2 µM.
The same measure, in the same setting: under `CC(C)[C@@H](O)C(=O)N1CC2(CC2)C[C@H]1C(=O)N[C@@H](C[C@@H]1CCNC1=O)C(=O)COC(F)(F)F` [Compound 356, (S)-5-((R)-2-hydroxy-3-methylbutanoyl)-N-((S)-3-oxo-1-((S)-2-oxopyrrolidin-3-yl)-4-(trifluoromethoxy)butan-2-yl)-5-azaspiro[2.4]heptane-6-carboxamide] stands 0.05 to 0.2 µM; under `CC(C)C[C@H](NC(=O)C(=O)NC1CCCCC1)C(=O)N[C@@H](C[C@@H]1CCNC1=O)C(=O)COC(F)(F)F` [Compound 163, N1-cyclohexyl-N2-((S)-4-methyl-1-oxo-1-(((S)-3-oxo-1-((S)-2-oxopyrrolidin-3-yl)-4-(trifluoromethoxy)butan-2-yl)amino)pentan-2-yl)oxalamide], below 0.05 µM; under `CC[C@@H](OC(F)(F)F)C(=O)N1C[C@H]2[C@@H]([C@H]1C(=O)N[C@@H](C[C@@H]1CCNC1=O)C(=O)COC(F)(F)F)C2(C)C` [Compound 335, (1R,2S,5S)-6,6-dimethyl-N-((S)-3-oxo-1-((S)-2-oxopyrrolidin-3-yl)-4-(trifluoromethoxy)butan-2-yl)-3-((R)-2-(trifluoromethoxy)butanoyl)-3-azabicyclo[3.1.0]-hexane-2-carboxamide], below 0.05 µM.
`CC(C)C[C@H](NC(=O)CNc1ccccc1)C(=O)N[C@@H](C[C@@H]1CCNC1=O)C(=O)COc1c(F)c(F)cc(F)c1F` [Compound 40, (S)-4-methyl-N-((S)-3-oxo-1-((S)-2-oxopyrrolidin-3-yl)-4-(2,3,5,6-tetrafluorophenoxy)butan-2-yl)-2-(2-(phenylamino)-acetamido)pentanamide]: the 50% effective concentration (EC50) was below 0.05 µM.
Still for that read-out and setting: under `O=C(Nc1ccccc1Cc1ccccc1)C(=O)N[C@@H](CC1CCCCC1)C(=O)N[C@@H](C[C@@H]1CCNC1=O)C(=O)COc1c(F)c(F)cc(F)c1F` [Compound 111, N1-(2-benzylphenyl)-N2-((S)-3-cyclohexyl-1-oxo-1-(((S)-3-oxo-1-((S)-2-oxopyrrolidin-3-yl)-4-(2,3,5,6-tetrafluorophenoxy)butan-2-yl)amino)propan-2-yl)oxalamide] stands 0.05 to 0.2 µM.
Same read-out and setting: under `CC(C)C[C@H](NC(=O)C1(C)CCCO1)C(=O)N[C@@H](C[C@@H]1CCNC1=O)C(=O)COC(F)(F)F` (stereo partly drawn) [Compound 214, 2-methyl-N-((S)-4-methyl-1-oxo-1-(((S)-3-oxo-1-((S)-2-oxopyrrolidin-3-yl)-4-(trifluoromethoxy)butan-2-yl)amino)pentan-2-yl)tetrahydrofuran-2-carboxamide] stands 0.05 to 0.2 µM.

Staying with this experiment, now noted: Severe acute respiratory syndrome coronavirus 2, HeLa-ACE2, 24 h, HeLa-ACE2 cells, SARS-CoV-2 infection, 24 h; given as bound; read-out: EC50, uM (Hela).
In the case of `CO[C@@H]1C[C@@H](C(=O)N[C@@H](C[C@@H]2CCNC2=O)C(=O)COC(F)(F)F)N(C(=O)C(=O)NC(C)(C)C)C1` [Compound 537, (2S,4R)-1-(2-(tert-butylamino)-2-oxoacetyl)-4-methoxy-N-((S)-3-oxo-1-((S)-2-oxopyrrolidin-3-yl)-4-(trifluoromethoxy)butan-2-yl)pyrrolidine-2-carboxamide], the EC50 was above 1 µM.

The experiment is the same for the next values; noted with them: Severe acute respiratory syndrome coronavirus 2, HeLa-ACE2, 24 h, HeLa-ACE2 cells, SARS-CoV-2 infection, 24 h; read-out: EC50, uM (Hela).
Regarding `CSCC[C@H](NC(=O)[C@H](CC(C)C)NC(=O)C(=O)Nc1ccccc1F)C(=O)COc1c(F)c(F)cc(F)c1F` [Compound 654, N1-(2-fluorophenyl)-N2-((S)-4-methyl-1-(((S)-5-(methylthio)-2-oxo-1-(2,3,5,6-tetrafluorophenoxy)pentan-3-yl)amino)-1-oxopentan-2-yl)oxalamide], the EC50 was 0.5 to 1 µM.
Still for that read-out and setting: under `CC1(C[C@H](NC(=O)C(=O)NC23CC(F)(C2)C3)C(=O)N[C@@H](C[C@@H]2CCNC2=O)C(=O)COC(F)(F)F)CCC1` [Compound 573, N1-(3-fluorobicyclo[1.1.1]pentan-1-yl)-N2-((S)-3-(1-methylcyclobutyl)-1-oxo-1-(((S)-3-oxo-1-((S)-2-oxopyrrolidin-3-yl)-4-(trifluoromethoxy)butan-2-yl)amino)propan-2-yl)oxalamide] stands below 0.05 µM; under `CC(C)Cn1cc(C(=O)N2CC3(CC3)C[C@H]2C(=O)N[C@@H](C[C@@H]2CCNC2=O)C(=O)COC(F)(F)F)nn1` [Compound 695, (S)-5-(1-isobutyl-1H-1,2,3-triazole-4-carbonyl)-N-((S)-3-oxo-1-((S)-2-oxopyrrolidin-3-yl)-4-(trifluoromethoxy)butan-2-yl)-5-azaspiro[2.4]heptane-6-carboxamide], 0.05 to 0.2 µM.
On the same count and under the same terms, the value for `CC(C)(C)NC(=O)C(=O)N1C[C@@H]2CC(F)(F)C[C@@H]2[C@H]1C(=O)N[C@@H](C[C@@H]1CCNC1=O)C(=O)COC(F)(F)F` [Compound 520, (1S,3aR,6aS)-2-(2-(tert-butylamino)-2-oxoacetyl)-5,5-difluoro-N-((S)-3-oxo-1-((S)-2-oxopyrrolidin-3-yl)-4-(trifluoromethoxy)butan-2-yl)octahydrocyclo-penta[c]pyrrole-1-carboxamide] was 0.05 to 0.2 µM.
On the same count and under the same terms, the value for `CC(C)(C)NC(=O)C(=O)N1C[C@@H]2CC[C@@H]2[C@H]1C(=O)N[C@@H](C[C@@H]1CCNC1=O)C(=O)COC(F)(F)F` [Compound 561, (1S,2S,5R)-3-(2-(tert-butylamino)-2-oxoacetyl)-N-((S)-3-oxo-1-((S)-2-oxopyrrolidin-3-yl)-4-(trifluoromethoxy)butan-2-yl)-3-azabicyclo-[3.2.0]heptane-2-carboxamide] was 0.2 to 0.5 µM; that for `C=CCC(=O)N1CC2(CC2)C[C@H]1C(=O)N[C@@H](C[C@@H]1CCNC1=O)C(=O)COC(F)(F)F` [Compound 689, (S)-5-(but-3-enoyl)-N-((S)-3-oxo-1-((S)-2-oxopyrrolidin-3-yl)-4-(trifluoromethoxy)butan-2-yl)-5-azaspiro[2.4]heptane-6-carboxamide] was 0.05 to 0.2 µM.
`CC(=O)N[C@@H](CC(C)C)C(=O)N[C@@H](C[C@@H]1CCNC1=O)C(=O)COC(F)(F)F` [Compound 709, (S)-2-acetamido-4-methyl-N-((S)-3-oxo-l-((S)-2-oxopyrrolidin-3-yl)-4-(trifluoromethoxy)butan-2-yl)pentanamide]: the EC50 fell in the range of 0.2 to 0.5 µM.
Still for that read-out and setting: under `CC1(NC(=O)C(=O)N2CC3(CC3)C[C@H]2C(=O)N[C@@H](C[C@@H]2CCNC2=O)C(=O)COC(F)(F)F)CC1` [Compound 571, (S)-5-(2-((l-methylcyclopropyl)-amino)-2-oxoacetyl)-N-((S)-3-oxo-1-((S)-2-oxopyrrolidin-3-yl)-4-(trifluoromethoxy)butan-2-yl)-5-azaspiro[2.4]-heptane-6-carboxamide] stands 0.05 to 0.2 µM; under `CC(C)(C)NC(=O)C(=O)N1CC2(CCCC2)CC1C(=O)N[C@@H](C[C@@H]1CCNC1=O)C(=O)COC(F)(F)F` (stereo partly drawn) [Compound 657, 2-(2-(tert-butylamino)-2-oxoacetyl)-N-((S)-3-oxo-1-((S)-2-oxopyrrolidin-3-yl)-4-(trifluoromethoxy)butan-2-yl)-2-azaspiro[4.4]nonane-3-carboxamide], below 0.05 µM.
On the same count and under the same terms, under `C[C@@H](O)C(=O)N1CC2(CC2)C[C@H]1C(=O)N[C@@H](C[C@@H]1CCNC1=O)C(=O)COC(F)(F)F` [Compound 697, (S)-5-((R)-2-hydroxypropanoyl)-N-((S)-3-oxo-1-((S)-2-oxopyrrolidin-3-yl)-4-(trifluoromethoxy)butan-2-yl)-5-azaspiro[2.4]heptane-6-carboxamide] stands 0.05 to 0.2 µM; under `O=C1NCC[C@H]1C[C@H](NC(=O)[C@@H]1CC2(CC2)CN1C(=O)C1CC(F)(F)C1)C(=O)COC(F)(F)F` [Compound 721, (S)-5-(3,3-difluorocyclobutane-1-carbonyl)-N-((S)-3-oxo-1-((S)-2-oxopyrrolidin-3-yl)-4-(trifluoromethoxy)butan-2-yl)-5-azaspiro[2.4]heptane-6-carboxamide], 0.05 to 0.2 µM.
As for `CC(C)[C@H](O)[C@@H](O)C(=O)N1CC2(CC2)C[C@H]1C(=O)N[C@@H](C[C@@H]1CCNC1=O)C(=O)COC(F)(F)F` [Compound 726, (S)-5-((2R,3S)-2,3-dihydroxy-4-methylpentanoyl)-N-((S)-3-oxo-1-((S)-2-oxopyrrolidin-3-yl)-4-(trifluoromethoxy)butan-2-yl)-5-azaspiro[2.4]heptane-6-carboxamide], the 50% effective concentration (EC50) is 0.2 to 0.5 µM.
The same measure, in the same setting: under `CC(C)(C)NC(=O)C(=O)N1CC2(CCCCC2)CC1C(=O)N[C@@H](C[C@@H]1CCNC1=O)C(=O)COC(F)(F)F` (stereo partly drawn) [Compound 531, 2-(2-(tert-butylamino)-2-oxoacetyl)-N-((S)-3-oxo-1-((S)-2-oxopyrrolidin-3-yl)-4-(trifluoromethoxy)butan-2-yl)-2-azaspiro[4.5]decane-3-carboxamide] stands below 0.05 µM.

Still in this experiment, the particulars now being: Severe acute respiratory syndrome coronavirus 2, HeLa-ACE2, 24 h; read-out: EC50, uM (Hela).
Regarding `CC(C)C[C@@H](OC(=O)Cc1ccccc1)C(=O)N1CC2(CC2)C[C@H]1C(=O)N[C@@H](C[C@@H]1CCNC1=O)C(=O)COC(F)(F)F` [Compound 632, (R)-4-methyl-1-oxo-1-((S)-6-(((S)-3-oxo-l-((S)-2-oxopyrrolidin-3-yl)-4-(trifluoromethoxy)butan-2-yl)carbamoyl)-5-azaspiro[2.4]heptan-5-yl)pentan-2-yl 2-phenylacetate], the 50% effective concentration (EC50) is below 0.05 µM.
On the same count and under the same terms, under `CC(C)C[C@H](NC(=O)C(=O)Nc1ccccc1)C(=O)N[C@@H](C[C@@H]1CCNC1=O)C(=O)COP(C)(=O)c1ccccc1` (stereo partly drawn) [Compound 653, (S)-3-((S)-4-methyl-2-(2-oxo-2-(phenylamino)acetamido)pentanamido)-2-oxo-4-((S)-2-oxopyrrolidin-3-yl)butyl methyl(phenyl)phosphinate] stands 0.2 to 0.5 µM.
